The target of assay [1] is T1, catalytic domain of human Bub1 (amino acids 704-1085) (Homo sapiens, UniProt O43683).
T1 construct: catalytic domain of human Bub1 (amino acids 704-1085); His6 (N); made in house; host or cells: insect cells (Hi5)
Kind of assay: Bub1 kinase assay (TR-FRET). The settings on record: 10 μM ATP, avg, read-out: Bub1 avg (IC50 [mol/l]). In kind it is biochemical. The procedure, abridged:
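Readout is the 665/620 nm TR-FRET ratio from anti-phosphoserine antibody, Eu-labelled anti-mouse IgG and streptavidin-XL665, scaled between no-enzyme and uninhibited controls. Reaction: 1 μM biotinylated peptide, 10 μM ATP, 60 min, 22 °C, after 15 min compound preincubation with His6-Bub1 (704-1085, insect-expressed, ~200 ng/ml).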

For a further assay, the system named is HeLa. The assay is described as follows: Proliferation assay (crystal violet), HeLa. In kind it is cell-based. The settings on record: Homo sapiens, HeLa, 96 h, HeLa cells; 4 days incubation; crystal violet staining; read-out: IC50 inhibition of proliferation, HeLa. The procedure, abridged:
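Crystal violet proliferation readout, 4-day compound incubation, 0.001–10 μM, final DMSO 0.5%. Zero-point plate stained at time of dosing set as 0%, untreated control as 100%; IC50 via 4-parameter fit.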

Molecules are shown by their SMILES.

T1 sequence (O43683 704-1085): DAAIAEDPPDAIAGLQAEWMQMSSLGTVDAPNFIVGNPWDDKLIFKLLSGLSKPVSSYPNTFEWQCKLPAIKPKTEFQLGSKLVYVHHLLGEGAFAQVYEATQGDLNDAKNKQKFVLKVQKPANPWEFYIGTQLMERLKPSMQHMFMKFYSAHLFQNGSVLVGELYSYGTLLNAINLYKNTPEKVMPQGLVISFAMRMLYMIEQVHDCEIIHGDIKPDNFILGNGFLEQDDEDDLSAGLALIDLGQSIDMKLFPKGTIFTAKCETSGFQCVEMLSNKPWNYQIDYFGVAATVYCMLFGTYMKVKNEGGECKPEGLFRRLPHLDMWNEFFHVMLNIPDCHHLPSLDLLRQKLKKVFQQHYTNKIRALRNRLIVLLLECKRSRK

As for `Cc1nsc(Nc2ccc(C#N)cn2)c1C(=O)Nc1ccc(OC2CCCN(CC(F)(F)F)C2)nc1` (stereo not drawn) [Example 40, 5-[(5-Cyanopyridin-2-yl)amino]-3-methyl-N-(6-{[1-(2,2,2-trifluoroethyl)piperidin-3-yl]oxy}pyridin-3-yl)-1,2-thiazole-4-carboxamide], the IC50 in assay [1] was not below 20 µM; with HeLa, 0.54 µM.
On to `Cc1nsc(Nc2ccc(C#N)cn2)c1C(=O)Nc1ccc(Nc2ccc(F)c(F)c2)nc1` [Example 433, 5-[(5-Cyanopyridin-2-yl)amino]-N-{6-[(3,4-difluorophenyl)amino]pyridin-3-yl}-3-methyl-1,2-thiazole-4-carboxamide], for which the IC50 in assay [1] was more than 20 µM; with HeLa, 5.4 µM.
Turning to `Cc1nsc(Nc2cnc3ccccc3n2)c1C(=O)Nc1ccc(NCCN(C)C(=O)OC(C)(C)C)nc1` [Example 434, tert-Butyl methyl(2-{[5-({[3-methyl-5-(quinoxalin-2-ylamino)-1,2-thiazol-4-yl]carbonyl}amino)pyridin-2-yl]amino}ethyl)carbamate], the values for the IC50 (in assay [1]; with HeLa) were more than 20 µM and 8 µM, respectively.
On the same counts, the results for `Cc1nsc(Nc2cnc(C(F)(F)F)cn2)c1C(=O)Nc1ccc(OC[C@H]2CCCN(CCC(F)(F)F)C2)nc1` [Example 378, 3-methyl-5-{[5-(trifluoromethyl)pyrazin-2-yl]amino}-N-(6-{[(3S)-1-(3,3,3-trifluoropropyl)piperidin-3-yl]methoxy}pyridin-3-yl)-1,2-thiazole-4-carboxamide] are not below 20 µM and 0.29 µM.
`Cc1nsc(Nc2nc3c(C(F)(F)F)cccc3s2)c1C(=O)Nc1ccc(OCCO)c(F)c1` [Example 4, N-[3-Fluoro-4-(2-hydroxyethoxy)phenyl]-3-methyl-5-{[4-(trifluoromethyl)-1,3-benzothiazol-2-yl]amino}-1,2-thiazole-4-carboxamide]: the IC50 in assay [1] was not below 20 µM; in the assay on HeLa, 1.8 µM.
On the same counts, the results for `Cc1nsc(Nc2cnc(C(F)(F)F)cn2)c1C(=O)Nc1ccc(F)c(O[C@H]2CCN(CCC(F)(F)F)C2)c1` [Example 415, N-(4-Fluoro-3-{[(3S)-1-(3,3,3-trifluoropropyl)pyrrolidin-3-yl]oxy}phenyl)-3-methyl-5-{[5-(trifluoromethyl)pyrazin-2-yl]amino}-1,2-thiazole-4-carboxamide] are more than 20 µM and 0.35 µM.
For the compound `Cc1nsc(Nc2cnccn2)c1C(=O)Nc1ccc(OCCCN)nc1` [Example 48, N-[6-(3-Aminopropoxy)pyridin-3-yl]-3-methyl-5-(pyrazin-2-ylamino)-1,2-thiazole-4-carboxamide], the IC50 was not below 20 µM in assay [1] and 10 µM in the assay with HeLa.
Take `Cc1nsc(Nc2cnc(C(F)(F)F)cn2)c1C(=O)Nc1ccc(O[C@@H]2CN(CCC(F)(F)F)C[C@@H]2F)nc1` [Example 409, N-(6-{[(3R,4S)-4-Fluoro-1-(3,3,3-trifluoropropyl)pyrrolidin-3-yl]oxy}pyridin-3-yl)-3-methyl-5-{[5-(trifluoromethyl)pyrazin-2-yl]amino}-1,2-thiazole-4-carboxamide]: the values for the IC50 (in assay [1]; in the assay with HeLa) were more than 20 µM and 0.19 µM, respectively.
On the same counts, the results for `Cc1nsc(Nc2cnc(C(F)(F)F)cn2)c1C(=O)Nc1ccc(F)c(OC[C@H]2CCCN(CC(F)F)C2)c1` [Example 400, N-(3-{[(3S)-1-(2,2-difluoroethyl)piperidin-3-yl]methoxy}-4-fluorophenyl)-3-methyl-5-{[5-(trifluoromethyl)pyrazin-2-yl]amino}-1,2-thiazole-4-carboxamide] are more than 20 µM and 0.77 µM.
Consider `Cc1nsc(Nc2cnc(C(F)(F)F)cn2)c1C(=O)Nc1ccc(O[C@@H]2CN(CC(F)(F)F)C[C@@H]2F)nc1` [Example 410, N-(6-{[(3R,4S)-4-Fluoro-1-(2,2,2-trifluoroethyl)pyrrolidin-3-yl]oxy}pyridin-3-yl)-3-methyl-5-{[5-(trifluoromethyl)pyrazin-2-yl]amino}-1,2-thiazole-4-carboxamide], for which the values for the IC50 (in assay [1]; in the assay with HeLa) were more than 20 µM and 0.17 µM, respectively.
As for `Cc1nsc(Nc2cncc(C(F)(F)F)n2)c1C(=O)Nc1ccc(OCCN(C)C(=O)OC(C)(C)C)nc1` [Example 430, tert-Butyl methyl{2-[(5-{[(3-methyl-5-{[6-(trifluoromethyl)pyrazin-2-yl]amino}-1,2-thiazol-4-yl)carbonyl]amino}pyridin-2-yl)oxy]ethyl}carbannate], the results for the IC50 (in assay [1]; in the assay on HeLa) were more than 20 µM and 0.92 µM, respectively.
Turning to `Cc1nsc(Nc2ccc(C#N)cn2)c1C(=O)Nc1ccc(OCCCNC(=O)OC(C)(C)C)nc1` [Example 46, tert-Butyl [3-({5-[({5-[(5-cyanopyridin-2-yl)amino]-3-methyl-1,2-thiazol-4-yl}-carbonyl)amino]pyridin-2-yl}oxy)propyl]carbamate], the IC50 in assay [1] is not below 20 µM; in the assay with HeLa, 10 µM.
`Cc1nsc(Nc2cnc(C(F)(F)F)cn2)c1C(=O)Nc1ccc(F)c(O[C@H]2CCN(CC(F)F)C2)c1` [Example 417, N-(3-{[(3S)-1-(2,2-Difluoroethyl)pyrrolidin-3-yl]oxy}-4-fluorophenyl)-3-methyl-5-{[5-(trifluoromethyl)pyrazin-2-yl]amino}-1,2-thiazole-4-carboxamide]: the IC50 came out at 1.8 µM in assay [1] and 0.41 µM in the assay with HeLa.
With `Cc1nsc(Nc2ccc(C#N)cn2)c1C(=O)Nc1ccc(OC[C@H]2CCN(CC(F)(F)F)C2)nc1` [Example 405, 5-[(5-Cyanopyridin-2-yl)amino]-3-methyl-N-(6-{[(35)-1-(2,2,2-trifluoroethyl)pyrrolidin-3-yl]methoxy}pyridin-3-yl)-1,2-thiazole-4-carboxamide], the results for the IC50 (in assay [1]; with HeLa) were more than 20 µM and 0.44 µM, respectively.
Take `Cc1nsc(Nc2cnc(C(F)(F)F)cn2)c1C(=O)Nc1ccc(F)c(O[C@@H]2CCN(CC(F)F)C2)c1` [Example 412, N-(3-{[(3R)-1-(2,2-Difluoroethyl)pyrrolidin-3-yl]oxy}-4-fluorophenyl)-3-methyl-5-{[5-(trifluoromethyl)pyrazin-2-yl]amino}-1,2-thiazole-4-carboxamide]: the IC50 in assay [1] is more than 20 µM; with HeLa, 0.26 µM.
For the compound `CCCN1CCC(COc2ccc(NC(=O)c3c(C)nsc3Nc3cnc(C(F)(F)F)cn3)cn2)C(F)(F)C1` (stereo not drawn) [Example 394, N-{6-[(3,3-difluoro-1-propylpiperidin-4-yl)methoxy]pyridin-3-yl}-3-methyl-5-{[5-(trifluoromethyl)pyrazin-2-yl]amino}-1,2-thiazole-4-carboxamide], the IC50 in assay [1] was more than 20 µM; with HeLa, 0.38 µM.
On the same counts, the results for `CC(=O)Nc1ccc(NC(=O)c2c(C)nsc2Nc2ccc(C#N)cn2)cn1` [Example 435, N-(6-Acetamidopyridin-3-yl)-5-[(5-cyanopyridin-2-yl)amino]-3-methyl-1,2-thiazole-4-carboxamide] are more than 20 µM and more than 10 µM.
On the same counts, the results for `Cc1nsc(Nc2cnc3ccccc3n2)c1C(=O)Nc1cccc(C(=O)N[C@@H](CCC(N)=O)C(=O)OC(C)(C)C)c1` [Example 56, tert-butyl N^2-[3-({[3-methyl-5-(quinoxalin-2-ylamino)-1,2-thiazol-4-yl]carbonyl}amino)-benzoyl]glutaminate] are not below 20 µM and 9.8 µM.
